Article PMC8921294, “Inhibition of mitochondrial LonP1 protease by allosteric blockade of ATP binding and hydrolysis via CDDO and its derivatives” (The Journal of Biological Chemistry, 2022)
Positions count from the first letter of the chain named.

Key:
[1] = biological target: T1, LonP1 C637V (Homo sapiens, UniProt P36776, C637V); experiment: Endpoint ATPase assay, LonP1 C637V; type: biochemical
T1 construct: hexa-histidine (N); made in house; host or cells: Rosetta 2 E. coli
T1 sequence (P36776 68-959 C637V): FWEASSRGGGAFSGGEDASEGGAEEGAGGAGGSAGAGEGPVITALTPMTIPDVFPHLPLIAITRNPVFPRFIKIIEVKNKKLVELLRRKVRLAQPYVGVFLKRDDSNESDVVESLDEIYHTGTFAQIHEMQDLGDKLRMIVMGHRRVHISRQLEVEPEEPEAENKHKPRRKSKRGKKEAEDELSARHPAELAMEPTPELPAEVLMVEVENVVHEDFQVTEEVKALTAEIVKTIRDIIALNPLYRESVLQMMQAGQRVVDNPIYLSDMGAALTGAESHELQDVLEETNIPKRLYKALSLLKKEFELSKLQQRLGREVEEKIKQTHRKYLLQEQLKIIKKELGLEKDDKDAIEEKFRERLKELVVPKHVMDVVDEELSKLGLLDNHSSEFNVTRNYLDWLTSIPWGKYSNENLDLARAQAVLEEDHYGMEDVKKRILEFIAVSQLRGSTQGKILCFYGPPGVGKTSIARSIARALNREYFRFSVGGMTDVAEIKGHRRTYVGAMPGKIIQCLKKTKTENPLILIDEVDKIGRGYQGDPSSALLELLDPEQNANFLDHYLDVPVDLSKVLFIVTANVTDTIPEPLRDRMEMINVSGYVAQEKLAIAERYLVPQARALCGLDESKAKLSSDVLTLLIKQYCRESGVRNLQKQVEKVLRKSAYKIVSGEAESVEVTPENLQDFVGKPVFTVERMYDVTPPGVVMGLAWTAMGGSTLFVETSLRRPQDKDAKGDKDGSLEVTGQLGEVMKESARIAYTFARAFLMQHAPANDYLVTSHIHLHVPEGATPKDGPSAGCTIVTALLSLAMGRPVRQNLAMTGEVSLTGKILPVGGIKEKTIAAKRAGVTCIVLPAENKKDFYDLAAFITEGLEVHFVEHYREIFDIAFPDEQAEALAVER
Experimental: (§1) Human mitochondrial LonP1 and mutants lacking the predicted mitochondrial targeting sequence were fused to an N-terminal hexa-histidine affinity tag, expressed in Rosetta 2 E. Coli, and purified using a nickel agarose column as previously described ([72]) and protein concentration and buffer exchange carried out using Amicon Ultra centrifugal filtration. LonP1 mutant constructs were obtained from the PCR-based QuikChange Site-Directed Mutagenesis Kit.
(§2) ADP-Glo (Promega) assays were performed according to the manufacturer's protocols. Purified wild-type or mutant LonP1 (400 nM monomer), the 26S proteasome (3 nM), or no enzyme controls were preincubated in 96-well plates (60 min, 25 °C) with ten different concentrations of CDDO and its derivatives, TP-82, enoxolone (5 μM) or DMSO vehicle control in buffer (40 mM Tris-HCl (pH 7.5), 20 mM MgCl2, 0.1 mg/ml BSA and 5% DMSO). The 26S and 20S proteasome were also assayed at 0, 0.75, 1.5, 3, 6, and 12 nM in the absence of CDDO derivatives. […] Assay reagents were used to quench further ATPase activity and generate luminescence signals proportional to the concentration of ADP formed. Background (no enzyme control) luminescence values were subtracted, and resultant values were reported as a percentage of the no drug control (100%). […]

[2] = biological target: T2, LonP1 F547A (Homo sapiens, UniProt P36776, F547A); experiment: Endpoint ATPase assay, LonP1 F547A; type: biochemical
T2 construct: hexa-histidine (N); made in house; host or cells: Rosetta 2 E. coli
T2 sequence (P36776 68-959 F547A): T1 sequence (P36776 68-959 C637V) with F480A, V570C
Experimental: as §1, §2

Fold increase in inhibition compared with WT [1]: 3.8 | IC50 ([1]; end-point ATPase assay, N = 1, read-out: CDDO IC50): 3.7 µM | Fold increase in inhibition compared with WT [2]: 2.4 | IC50 ([2]; end-point ATPase assay, read-out: CDDO IC50): 5.9 ± 0.6 µM
Compound: CC1(C)CC[C@]2(C(=O)O)CC[C@]3(C)[C@H](C(=O)C=C4[C@@]5(C)C=C(C#N)C(=O)C(C)(C)[C@@H]5CC[C@]43C)[C@@H]2C1 [CDDO, 2-cyano-3,12-dioxooleana-1,9(11)-dien-28-oic acid]
